Where a name gives a salt, the structure may show the parent alone.
Key:
[1] = tested on: multiple stage neutrophil progenitors; experiment: CD15 neutrophil antigen cell-based ELISA (CELISA); settings: for CD15 signal from the cell cultures with increasing concentrations of the drug: anti-neoplastic drug on expanded CD34+ cells, 24 h
From the text: Three methods, more completely described in the following examples, were utilized for a determination of cell survival and ability to produce daughter cells of primary human neutrophil progenitors: (1) a FACS assay which determined the percent of live cells by size and granularity; (2) a colony forming assay which measured the number of CFU-GM progenitors (a specific early stage neutrophil progenitor); and (3) a cell-based ELISA which measured CD15 antigen the value of which was proportional to the number of neutrophil lineage cells. This assay allows evaluation of neutrophil progenitors (cells that can divide and produce daughter neutrophil-lineage cells) at multiple stages of differentiation.
Expanded CD34^+ stem cells were isolated as described in Example 2 and grown in complete growth media. The expanded CD34^+ cells were treated with DMSO or rolipram plus forskolin as previously described. […] After the treatment, the cells were counted, washed twice with 4 ml of HBSS supplemented with 2% FBS, and resuspended in complete growth media. The expression of CD15 antigen was used as a measure of the number of neutrophil lineage cells expanded from surviving progenitors of multiple stages of differentiation.
The cells were plated at a set number into 96-well plates in 100 μl volume per well of complete media. […] The plates were harvested at different time points by centrifuging at 450 G for 10 minutes at room temperature (RT) and the cells were washed several twice in HBSS by centrifugation of the plates. The cells were removed by suspension twice in HBSS with 5 mM EDTA with 100 μl per well and transfer of the total 200 μl volume to capture plates (Costar DNA-bind, #2498) that had been pretreated with 1% gluteraldehyde and stored (Warren et al., 1995 Stem Cells 13:167-174).
For CELISA, the preservative solution (PBS, 0.1% BSA, 0.1% azide) was removed from the capture plate and the wells were washed with 100 μl PBS. […] The plates were washed twice with 300 μl PBS/well and incubated with a secondary antibody (goat anti-mouse IgM-biotin, Sigma B-9265, 0.105 μg/well, 100 μl PBS with 5% goat sera) at RT for 60 min. After three to six 200 μl/well washes, strepavidin-horseradish peroxidase (Pierce 21126, 0.1 μg/well in a 1% solution of stable peroxide buffer, Pierce 34062) was added. The plates were incubated for ten minutes and washed three to six times with 200 μl/well. For the final detection step, the chemiluminescent reagent Supersignal® Ultra (Pierce 34075) prepared just prior to use by mixing equal parts of the luminol enhancer and the stable peroxide was added to the plates (100 μl per well) and gently mixed for five minutes at RT. The plates were read on a Wallace Victor II machine for one second for chemiluminescence at 425 nm.
The data from the Wallac Victor were transferred to Excel for analysis. Averages of replicate wells from treated cells were calculated along with standard error of the mean (sem) of the counts minus the background signal from replicate wells with media only (no cells).

[2] = tested on: CCL64 mink lung epithelial cells; experiment: Protection of mink lung epithelial cells from paclitaxel, sulforhodamine B stain; format: cell-based; settings: PDE4 inhibitor 1 μM plus forskolin 100 μM 24 h, then paclitaxel 10 nM 48 h
Experimental: CCL64 mink lung epithelial cells (ATCC #CCL-64) were grown in DMEM supplemented with 10% FBS and 1% penicillin-streptomycin and seeded into 96-well plates. After overnight incubation at 37° C. cells were treated with 100 μM forskolin in combination with each of the PDE4 inhibitors (1 μM). After 24 hours of treatment, paclitaxel was added to wells at various concentrations up to 10 nM. Time zero control plates were harvested by staining with Sulforhodamine B (Skehan P. et. al., (1990), J. Nat'l Cancer Inst 82:1107-12.) After an additional 48 hours of incubation at 37° C., the plates were harvested and stained with sulforhodamine B. The absorbance of the samples was read at the optical density of 562 nm. The no-drug controls were set to 100% and values were normalized to time zero control. As indicated in Example 8, cells were pre-treated with forskolin plus various PDE4 inhibitors (1 μM) and then challenged with paclitaxel at various concentrations. The sulforhodamine B signal from the cells was expressed as percent of control (no-drug, vehicle only). An increase in signal, indicating protection, ranged from 85% to 130% with the cells pre-treated with forskolin plus a particular PDE4 inhibitor and followed by a paclitaxel challenge at 10 nM.

[3] = tested on: specific early neutrophil progenitors (CFU-GMs); experiment: CFU-GM colony forming assay; format: cell-based, human; settings: for number of CFU-GM colonies with increasing amounts of the drug: anti-neoplastic drug on expanded CD34+ cells, 24 h, colonies counted after 12 to 14 days
Experimental: Expanded CD34^+ cells, prepared according to the procedure of Example 2, were isolated and pretreated with DMSO or rolipram plus forskolin as described in Example 2. […] The cells were then plated in a semi solid growth medium for the growth of CFU-GMs following a published method with the exception that the G-CSF (10 ng/ml) was included in place of GM-CSF and erythropoietin (Dornsife, R E et al., Antimicrob Agents Chemother, 35: 322-328, (1991); Dornsife R E; Averett D R., Antimicrob Agents Chemother, 40(2): 514-519, (1996)). The CFU-GMs were counted after 12 to 14 days. The results are depicted in FIG. 3.

[4] = tested on: expanded CD34+ stem cells; experiment: Flow cytometric (FACS) evaluation of surviving and apoptotic fractions of expanded CD34+ cells; format: cell-based, human
Experimental: A T-test analysis ([…], with application of either equal or unequal variance [difference in standard error of the mean (sem) < or >3-fold, respectively) was performed to compare between treatment groups to determine if statistically significant differences existed (MS Excel, SAS JMP).

[5] = tested on: human A549 lung tumor line; experiment: Tumor cell growth after chemoprotectant regimen and paclitaxel, sulforhodamine B; format: cell-based; settings: for effect of chemoprotectant regimen on paclitaxel inhibition of tumor cell growth: forskolin 100 μM plus PDE4 inhibitor 1 μM, then paclitaxel 100 nM 24 h
Experimental: (§1) The human tumor cell lines HT-29 (colon: ATCC #HTB 38), RKO (colon, ATCC #HTB 130), lines A549 (lung, ATCC #CCL 185), and MDA468 (breast, ATCC #HTB 132) were obtained from the American Type Culture Collection and maintained in DMEM containing 10% FBS. Tumor cells were grown at 37° C. in a humidified atmosphere of 5% CO2. Adherent tumor cells were seeded into 96 well plates and incubated for six hours to allow for attachment. After six hours the chemoprotectants forskolin (100 μM) plus rolipram (1 μM) or forskolin (100 μM) plus ariflo (1 μM) were added. After overnight incubation, paclitaxel (100 nM) was added for 24 hours. Cells were then washed free of chemoprotectants and paclitaxel, placed in fresh media, and grown for 5 days. Growth was measured daily using sulforhodamine B (Skehan P. et. al., (1990), J. Nat'l Cancer Inst 82:1107-12). The results are depicted in FIG. 8.

[6] = tested on: human HT-29 colon tumor line; experiment: as above; format: cell-based; settings: forskolin 100 μM plus PDE4 inhibitor 1 μM, then paclitaxel 100 nM 24 h, versus DMSO
Experimental: as §1

[7] = tested on: human RKO colon tumor line; experiment: as above; format: cell-based; settings: forskolin 100 μM plus PDE4 inhibitor 1 μM, then paclitaxel 100 nM 24 h, versus DMSO
Experimental: as §1

[8] = tested on: normal progenitor cells; experiment: Cell based assays utilized herein, PDE4 inhibitor used alone; settings: without forskolin

For `CN(Cc1cnc2nc(N)nc(N)c2n1)c1ccc(C(=O)N[C@@H](CCC(=O)O)C(=O)O)cc1` [methotrexate, N-[4[[(2,4-diamino-6-pteridinyl)methyl]methylamino]benzoyl]-L-glutamic acid], the “CD15 signal from the cell cultures with increasing concentrations of the drug” value [1] was “decreased”.

`CCn1c(=O)c2ccccc2n(-c2cccc([N+](=O)[O-])c2)c1=O` [Nitraquazone] was tested, and the “Sulforhodamine B signal (survival) as percent of no-drug control” value [2] was 115%.

With `CC(=O)O[C@H]1C(=O)[C@@]2(C)[C@H]([C@H](OC(=O)c3ccccc3)[C@]3(O)C[C@H](OC(=O)[C@H](O)[C@@H](NC(=O)c4ccccc4)c4ccccc4)C(C)=C1C3(C)C)[C@]1(OC(C)=O)CO[C@@H]1C[C@@H]2O` [Paclitaxel, 5β,20-epoxy-1,2α,4,7β,10β,13α-hexa-hydroxytax-11-en-9-one 4,10-diacetate 2-benzoate 13-ester with (2R,3S)-N-benzoyl-3-phenylisoserine] the “number of CFU-GM colonies with increasing amounts of the drug” value [3] was “did not exhibit a good dose response”, the “CD15 signal from the cell cultures with increasing concentrations of the drug” value [1] was “decreased” and the surviving cell fraction ([4]; DMSO pretreatment only 24 h, then paclitaxel 30 nM 24 h) was 45%. The surviving cell fraction ([4]; DMSO pretreatment only 24 h, then paclitaxel 100 nM 24 h) was 27%, the surviving cell fraction ([4]; DMSO pretreatment only 24 h, then paclitaxel 300 nM 24 h) was 23% and the surviving cell fraction ([4]; DMSO pretreatment only 24 h, then paclitaxel 600 nM 24 h) was 18%. For the same molecule, the “inhibition of tumor cell growth” value ([5]; paclitaxel 100 nM 24 h) was “not completely inhibited”.

`CCC1=C[C@@H]2CN(C1)Cc1c([nH]c3ccccc13)[C@@](C(=O)OC)(c1cc3c(cc1OC)N(C)[C@H]1[C@@](O)(C(=O)OC)[C@H](OC(C)=O)[C@]4(CC)C=CCN5CC[C@]31[C@@H]54)C2` (relative stereo) [Vinorelbine, 3′,4′-didehydro-4′-deoxy-C′-norvincaleukoblastine [R-(R*,R*)-2,3-dihydroxybutanedioate (1:2)(salt)]] was tested, and the “CD15 signal from the cell cultures with increasing concentrations of the drug” value [1] was “decreased”.

`O=c1c2cccnc2n(-c2cccc([N+](=O)[O-])c2)c(=O)n1Cc1ccncc1` [RS-25344] was tested, and the “Sulforhodamine B signal (survival) as percent of no-drug control” value [2] was 105%.

In the case of `COc1ccc(C(=O)Nc2c(Cl)cncc2Cl)cc1OC1CCCC1` [Piclamilast, N-(3,5-dichloropyrid-4-yl)-3-cyclopentyloxy-4-methoxybenzamide], the “Sulforhodamine B signal (survival) as percent of no-drug control” value [2] is reported as 130%.

In the case of `O=c1[nH]cc(F)c(=O)[nH]1` [5-fluorouracil, 5-fluoro-2,4-(1-H,3H) pyrimidinedione], the “number of CFU-GM colonies with increasing amounts of the drug” value [3] is reported as “decreased in a dose dependent manner” and the “CD15 signal from the cell cultures with increasing concentrations of the drug” value [1] is reported as “decreased”.

`CC[C@]1(O)C[C@@H]2CN(CCc3c([nH]c4ccccc34)[C@@](C(=O)OC)(c3cc4c(cc3OC)N(C)[C@H]3[C@@](O)(C(=O)OC)[C@H](OC(C)=O)[C@]5(CC)C=CCN6CC[C@]43[C@@H]65)C2)C1` [Vinblastine, vincaleukoblastine sulfate] was tested, and the “CD15 signal from the cell cultures with increasing concentrations of the drug” value [1] was “decreased”.

For `COc1ccc([C@]2(C#N)CC[C@@H](C(=O)O)CC2)cc1OC1CCCC1` [Ariflo, cis-4-cyano-4-[3-(cyclopentyloxy)-4-methoxyphenyl]cyclohexane-1-carboxylic acid], the “Sulforhodamine B signal (survival) as percent of no-drug control” value [2] was 110%, the “effect of chemoprotectant regimen on paclitaxel inhibition of tumor cell growth” value [5] was “no additional protection” and the “effect of chemoprotectant regimen on paclitaxel inhibition of tumor cell growth” value [6] was “did not effect the inhibition of tumor cell growth”. For the same molecule, the “effect of chemoprotectant regimen on paclitaxel inhibition of tumor cell growth” value [7] was “did not effect the inhibition of tumor cell growth”.

`COC(=O)c1cccc(-n2c(=O)n(Cc3ccccc3)c(=O)c3cccnc32)c1` [CP-77059] was tested, and the “Sulforhodamine B signal (survival) as percent of no-drug control” value [2] was 85%.

In the case of `CC[C@@]1(O)C(=O)OCc2c1cc1n(c2=O)Cc2cc3c(CN(C)C)c(O)ccc3nc2-1` [topotecan, (S)-10-[(dimethylamino)methyl]-4-ethyl-4,9-dihydroxy-1H-pyrano[3′,4′,6,7]indolizino[1,2-b]quinoline-3,14(4H,12H)-dione monohydrochloride], the “CD15 signal from the cell cultures with increasing concentrations of the drug” value [1] is reported as “decreased”.

In the case of `COC(=O)N1C[C@@H](c2ccc(OC)c(OC3CCCC3)c2)[C@](C)(C(C)=O)C1` [GI193600X], the “Sulforhodamine B signal (survival) as percent of no-drug control” value [2] is reported as 120%.

`COc1ccc(C2CNC(=O)C2)cc1OC1CCCC1` (stereo not shown) [Rolipram] was tested, and the “survival of CFU-GM progenitors” value ([3]; rolipram plus forskolin prior to 5-fluorouracil, etoposide or paclitaxel, versus DMSO) was “increased the survival of CFU-GM progenitors”, the “effect of pretreatment on toxicity towards neutrophil progenitors compared to DMSO” value (shortened to “effect of pretreatment … compared to DMSO”) ([1]; rolipram plus forskolin, then carboplatin) was “no significant difference” and the “effect of pretreatment … compared to DMSO” value ([1]; rolipram plus forskolin, then cisplatin) was “significantly increase the toxicity”. For the same molecule, the “effect of pretreatment … compared to DMSO” value ([1]; rolipram plus forskolin, then doxorubicin) was “significantly increase the toxicity”, the “CD15 signal after pretreatment versus DMSO” value ([1]; rolipram plus forskolin, then paclitaxel, 5-FU, etoposide, vinblastine, vinorelbine, methotrexate or topotecan, 99% confidence) was “increased the CD15 signal antigen to a statistically significant level” and the “Sulforhodamine B signal (survival) as percent of no-drug control” value [2] was 110%. For the same molecule, the “apoptotic fraction in paclitaxel treated cells compared with DMSO pretreatment” value ([4]; pretreatment with rolipram plus forskolin) was “significantly reduced the apoptotic fraction”, the surviving cell fraction ([4]; rolipram 1 μM plus forskolin 100 μM 24 h, then paclitaxel 30 nM 24 h) was 86% and the surviving cell fraction ([4]; rolipram 1 μM plus forskolin 100 μM 24 h, then paclitaxel 100 nM 24 h) was 81%. For the same molecule, the surviving cell fraction ([4]; rolipram 1 μM plus forskolin 100 μM 24 h, then paclitaxel 300 nM 24 h) was 63%, the surviving cell fraction ([4]; rolipram 1 μM plus forskolin 100 μM 24 h, then paclitaxel 600 nM 24 h) was 59% and the “effect of chemoprotectant regimen on paclitaxel inhibition of tumor cell growth” value [5] was “no additional protection”. The “effect of chemoprotectant regimen on paclitaxel inhibition of tumor cell growth” value [6] was “did not effect the inhibition of tumor cell growth”, the “effect of chemoprotectant regimen on paclitaxel inhibition of tumor cell growth” value [7] was “did not effect the inhibition of tumor cell growth” and the protective effect [8] was “little protective effect”.

In the case of `CCCCn1c(=O)c2c(ncn2CC(C)=O)n(CCCC)c1=O` [Denbufylline, 7-acetonyl,1,3dibutylxanthine], the “Sulforhodamine B signal (survival) as percent of no-drug control” value [2] is reported as 95%.

In the case of `COc1cc([C@@H]2c3cc4c(cc3[C@@H](O[C@@H]3O[C@@H]5CO[C@@H](C)O[C@H]5[C@H](O)[C@H]3O)[C@H]3COC(=O)[C@H]23)OCO4)cc(OC)c1O` [Etoposide, 4′-demethyl-epipodophyllotoxin 9[4,6-0-(R)-ethylidene-β-D-glucopyranoside]], the “number of CFU-GM colonies with increasing amounts of the drug” value [3] is reported as “decreased in a dose dependent manner” and the “CD15 signal from the cell cultures with increasing concentrations of the drug” value [1] is reported as “decreased”.
